The conditions of data set [1]: mouse microsomes; cited from earlier work.
In data set [2] the test system is multidrug resistant P. falciparum strains. As to conditions: cited from earlier work.
The conditions of data set [3]: cited by Chatterjee, CALIBR model system; cited from earlier work.
Data set [4] addresses P. falciparum cyt bc1 (Plasmodium falciparum, UniProt Q02768). The conditions noted are these: cited from earlier work.
For data set [5] the following is noted: human microsomes; cited from earlier work.
The conditions of data set [6]: rat microsomes; cited from earlier work.
For data set [7], the system named is ATV resistant parasites. The conditions noted are these: cited from earlier work.
The subject of data set [8] is malaria-infected mice. As to conditions: cited from earlier work.
Data set [9] deals with patent malaria infections in mice. As to conditions: oral drug delivery, single dose; cited from earlier work.
The test system of data set [10] is P. yoelii luciferase expressing parasites (PyXNL non-lethal strain, luc+). The data set can be described thus: Protection against P. yoelii sporozoite-induced infection in mice (bioluminescence imaging). The format is in vivo, Plasmodium yoelii. How it is done: Animals receiving an im injection of 30 mg/kg ELQ-331 in sesame oil were challenged by inoculation with 10,000 P. yoelii luciferase expressing parasites (PyXNL non-lethal strain, luc^+) at two different time points, 48 days and 137 days post im injection (Note that separate groups of mice were used for these two challenges). For details of our experimental methods please refer to the work proposed section as well as published papers by Qigui Li (17) and Kami Kim (18). Sporozoites were obtained by dissection of infected mosquitoes, A. stephensi, and purification over glass wool with assistance from Dr. Brandon Wilder (formerly Sack), who recently joined the OHSU faculty (see letter of collaboration). Non-invasive whole animal
Bioluminescence imaging (BLI) was used to evaluate all study animals for the presence of liver stage infection using an IVIS Spectrum imager. Briefly, on the day of analysis mice received a single ip injection with a luciferin solution roughly 10 minutes before imaging. Each animal was placed on the IVIS platform with gaseous isoflurane serving as anesthetic. […] Of interest, we also challenged animals that had received an im injection (dissolved in sesame oil) of two similar ELQ-300 prodrugs, PSPS-173 and PSP6-16F.
Bioluminescent imaging (FIG. 2) was used to analyze the protective effect of im ELQ-300 prodrugs on Plasmodium yoelii liver stages. Mice were infected by inoculation with 10,000 Plasmodium yoelii GFP/luciferase expressing parasites (PyXNL non-lethal strain, luc*). As described in the narrative infected mice received sporozoite injections 48 days and 137 days following im injection with selected ELQ-300 prodrugs dissolved in sesame oil. After sporozoite challenge, mice underwent imaging for detection of bioluminescent signal after 24 and 48 hours and then again on Day 6 post-inoculation. Control mice show bioluminescent signal in the region above the liver of anesthetized mice after 24 hours which becomes more intense by 48 hours after which parasites emerge into the bloodstream as evidenced by widespread signal intensity across the entire animal by 6-days post inoculation.

Data set [11] can be described thus: Pharmacokinetics of intramuscular (im) injections of ELQ-300 prodrugs in sesame oil in mice. It counts as in vivo. The conditions noted are these: at every time point after im injection, Trial 2. How it is done: We dissolved ELQ-331 in sesame oil and administered (30 mg/kg) in a single […] injection into the caudal thigh of mice in two separate trials. Trial 1 served as a pilot study to monitor ELQ-300 blood levels for months following a single im injection. In Trial 2 we adjusted the LC-MS/MS chromatographic protocol to capture prodrug [ELQ-331] as well as [ELQ-300] with early time-points to cover the critical burst phase, a phenomenon known as “dose dumping”. […] In Trial 2, we monitored plasma [ELQ-331] and [ELQ-300] starting 6 hours after im injection. To avoid excessive blood draws, 6 different groups of 4 mice, all treated at the same time, were used in a rotating succession, one group for each time point. FIG. 1 depicts Plasma [ELQ-300], nM, following im injection in mice of 30 mg/kg ELQ-331 (prodrug) in sesame oil. […] At all time-points the [ELQ-300] concentration exceeds the Minimum Fully Effective Concentration (MEC100) of ≈60 nM. All data points are the average values±SEM.
Also shown in FIG. 5 is a composite plot of plasma [ELQ-300] from both trials with remarkable consistency in the results. ELQ-331 outperformed the CALIBR ELQ-300 prodrug (mCAR246) profiled at the 2017 ASTMH meeting by a significant margin, i.e., Day 28 bloodstream [ELQ-300] levels for mCAR246=181±59 (30 mg/kg, unknown formulation) vs. 446±22 nM (avg.±SEM) for prodrug ELQ-331 in (30 mg/kg, sesame oil).

Data set [12] can be described thus: Estimation of compound solubility in sesame oil. It counts as physicochemical. The conditions noted are these: room temperature, remained in solution for at least 72 hrs; for solubility: sesame oil, oil or lipid, thermodynamic from solid. Here is the method:
Generalized method for estimation of compound solubility in sesame oil: Sesame oil (10 μl) was dispensed into a glass vial containing 10 mg of the appropriate ELQ-300 prodrug. The mixture was vortexed and warmed (using a heat gun) to aid dissolution. The solubility of the compound was judged after the sesame oil mixture cooled to room temperature. If the compound was not completely dissolved, additional sesame oil was added in low-volume increments. Importantly, complete dissolution was assured by confirming by visual inspection that the compound remained in solution for at least 72 hrs at room temperature.

Where [13] appears, read: challenge 137 days (4½ months) after single im injection in sesame oil.

≈ marks a conversion by molar mass, not a printed value. Entries after “also recorded” stand apart in the source; their conditions may differ. Where two headings read alike, the source gives them in different places.

Broadly, the ED50 is the midpoint of the dose-response relation. The term solubility denotes the dissolved amount per volume that the medium holds. A word on the melting point: it is the temperature, or range, at which the solid turns liquid.

Sequence of P. falciparum cyt bc1 (Q02768 whole entry): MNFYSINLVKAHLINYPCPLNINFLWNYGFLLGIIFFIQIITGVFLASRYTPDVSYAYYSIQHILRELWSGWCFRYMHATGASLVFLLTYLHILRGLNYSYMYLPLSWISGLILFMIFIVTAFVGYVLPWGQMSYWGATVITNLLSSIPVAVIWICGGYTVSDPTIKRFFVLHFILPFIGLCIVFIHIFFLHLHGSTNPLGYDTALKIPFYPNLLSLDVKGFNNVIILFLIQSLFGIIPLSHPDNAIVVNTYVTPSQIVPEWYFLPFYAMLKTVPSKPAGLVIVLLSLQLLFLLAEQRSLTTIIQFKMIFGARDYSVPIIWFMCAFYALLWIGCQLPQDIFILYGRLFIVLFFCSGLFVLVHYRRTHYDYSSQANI

Consider `COc1cc2[nH]c(C)c(-c3ccc(Oc4ccc(OC(F)(F)F)cc4)cc3)c(=O)c2cc1Cl` [ELQ-300, 6-Chloro-7-methoxy-2-methyl-3-[4-[4-(trifluoromethoxy)phenoxy]phenyl]-4(1H)-quinolinone], for which the metabolic stability entry in data set [1], in data set [5] and in data set [6] was “metabolically stable” in each case. Also, the “IC50's vs. multidrug resistant P. falciparum strains” value in [2] is reported as “low nanomolar”. Also, the “minimum effective concentration (plasma ELQ-300)” value in [3] is 83 nM. In data set [4], the “selectivity for the parasite over the host cyt bc1” value is recorded as 10,000 fold. The “potency vs. ATV resistant parasites” value in data set [7] was “equal potency”. In data set [8] (4-day Peters Test), the ED50 is 0.02 mg/kg. Moreover, in data set [8] (4-day Peters Test), the curative dose was 0.3 to 1 mg/kg. Further, in data set [8] (relative to ATV), the “fold more effective than ATV in vivo in treatment of malaria-infected mice” value is reported as 30 fold.
With `CCOC(=O)OCOc1c(-c2ccc(Oc3ccc(OC(F)(F)F)cc3)cc2)c(C)nc2cc(OC)c(Cl)cc12` [ELQ-331, ((6-chloro-7-methoxy-2-methyl-3-(4-(4-(trifluoromethoxy)phenoxy)phenyl)quinolin-4-yl)oxy) methyl ethyl carbonate], the “cure of patent malaria infections in mice” value in data set [9] is “single dose cures”. Further, the “protection against sporozoite challenge” value was “fully protected” in data set [10] (challenge 48 days after single im injection in sesame oil) and “complete protection; also recorded: fully protected” in data set [10] (setting [13]). The “duration of protection in mice with a single im injection” value in data set [10] (single im injection) is listed as “more than 4 months”. For the same compound, the “bioluminescent signal (liver stage infection)” value in [10] (sporozoite challenge 48 days after 30 mg/kg im injection (Trial 2)) and in data set [10] (sporozoite challenge 137 days after 30 mg/kg im injection (Trial 1)) was “no detectable bioluminescent signal” throughout. Further, the “ratio of ELQ-300/ELQ-331 in plasma” value in [11] is listed as “very large”. In addition, in data set [12], the solubility is 125 mg/mL (≈ 216 mM).
Consider `COC(=O)OCOc1c(-c2ccc(Oc3ccc(OC(F)(F)F)cc3)cc2)c(C)nc2cc(OC)c(Cl)cc12` [ELQ-487], for which, in data set [12], the “Sesame Oil Solubility” value was 91 mg/mL.
With `CCCOC(=O)OCOc1c(-c2ccc(Oc3ccc(OC(F)(F)F)cc3)cc2)c(C)nc2cc(OC)c(Cl)cc12` [ELQ-488], the “Sesame Oil Solubility” value in data set [12] is 83 mg/mL.
Take `CCCCOC(=O)OCOc1c(-c2ccc(Oc3ccc(OC(F)(F)F)cc3)cc2)c(C)nc2cc(OC)c(Cl)cc12` [ELQ-489]: the “Sesame Oil Solubility” value in data set [12] is on record as 71 mg/mL.
With `CCCCCOC(=O)OCOc1c(-c2ccc(Oc3ccc(OC(F)(F)F)cc3)cc2)c(C)nc2cc(OC)c(Cl)cc12` [ELQ-490, ((6-chloro-7-methoxy-2-methyl-3-(4-(4-(trifluoromethoxy)phenoxy)phenyl)quinolin-4-yl)oxy)methyl pentyl carbonate], the melting point was 109 °C. The solubility in data set [12] was 83 mg/mL (≈ 134 mM).
In the case of `CCCCCCOC(=O)OCOc1c(-c2ccc(Oc3ccc(OC(F)(F)F)cc3)cc2)c(C)nc2cc(OC)c(Cl)cc12` [ELQ-491, ((6-chloro-7-methoxy-2-methyl-3-(4-(4-(trifluoromethoxy)phenoxy)phenyl)quinolin-4-yl)oxy)methyl hexyl carbonate], the melting point was 79 °C. In data set [12], the solubility was 100 mg/mL (≈ 158 mM).
Turning to `CCCCCCCOC(=O)OCOc1c(-c2ccc(Oc3ccc(OC(F)(F)F)cc3)cc2)c(C)nc2cc(OC)c(Cl)cc12` [ELQ-492, ((6-chloro-7-methoxy-2-methyl-3-(4-(4-(trifluoromethoxy)phenoxy)phenyl)quinolin-4-yl)oxy)methyl heptyl carbonate], the solubility in [12] was 71 mg/mL (≈ 110 mM).
`CCCCCCCCOC(=O)OCOc1c(-c2ccc(Oc3ccc(OC(F)(F)F)cc3)cc2)c(C)nc2cc(OC)c(Cl)cc12` [ELQ-493, ((6-chloro-7-methoxy-2-methyl-3-(4-(4-(trifluoromethoxy)phenoxy)phenyl)quinolin-4-yl)oxy)methyl octyl carbonate]: the melting point worked out at 54 °C. For the same compound, in [12], the solubility is 100 mg/mL (≈ 151 mM).
Take `CCCCCCCCCOC(=O)OCOc1c(-c2ccc(Oc3ccc(OC(F)(F)F)cc3)cc2)c(C)nc2cc(OC)c(Cl)cc12` [ELQ-494]: in data set [12], the “Sesame Oil Solubility” value was 333 mg/mL.
The compound `CCCCCCCCCCOC(=O)OCOc1c(-c2ccc(Oc3ccc(OC(F)(F)F)cc3)cc2)c(C)nc2cc(OC)c(Cl)cc12` [ELQ-495, ((6-chloro-7-methoxy-2-methyl-3-(4-(4-(trifluoromethoxy)phenoxy)phenyl)quinolin-4-yl)oxy)methyl decyl carbonate] came in with a melting point of 55 °C. Besides, the solubility in data set [12] is no less than 500 mg/mL.
`CCCCCCCOC(=O)OCOc1c(-c2ccc(Oc3ccc(OC(F)(F)F)cc3)cc2)c(C)nc2cc(OC)c(Cl)cc12` [PSP5-173]: in data set [10] (setting [13]), the “protection against sporozoite challenge” value is recorded as “partially protected”. In addition, in data set [10] (challenge 137 days after im injection), the “mice that developed blood stage infection” value is on record as “One of three”.
